Laboratory results taken from patent publication US4914096A, “6-aryl-substituted-4H-thieno(2,3-e)(1,2,4)triazolo(3,4-c)(1,4)diazepines” (priority 1989, dated 1990).
Like-named read-outs stand apart in the source and are kept apart here.

Assays:
[1] = test system: PAF-induced human platelet aggregation; assay: Platelet Aggregation Inhibition Assay test (PAIA test); format: cell-based; details: C-16 PAF 0.1 μM or 0.01 μM; human platelet rich plasma
Description: All of the compounds of formula I, as well as their pharmaceutically acceptable acid addition salts, are useful as platelet activating factor inhibitors as indicated by their ability to inhibit platelet activating factor (PAF)-induced human platelet aggregation in vitro according to the Platelet Aggregation Inhibition Assay test (PAIA test) as follows:
Human subjects are kept aspirin free for one week and fasted overnight. Platelet rich plasma (PRP) is prepared by centrifugation (200×g.) of freshly drawn blood, anti-coagulated within 0.38% sodium citrate (final concentration). Platelet count is adjusted to 250,000 per μl using platelet poor plasma (PPP) obtained by a second centrifugation (700×g.) of the blood sample. An aliquot (0.38 ml) of the PRP is dispensed into cuvettes and maintained at room temperature (22° C.) until used (but for not more than two hours). […] The aggregation response is quantitated by determining the area under the curve (AUC). The AUC calculated for the inducing agent alone is considered to be one hundred percent. The potential percent inhibition of the aggregation response is determined by dividing the AUC generated in the presence of the compound by the AUC of the inducing agent alone, multiplying by 100 and then subtracting from 100.

[2] = molecular target: T1, Human Platelet PAF Receptor (Homo sapiens, UniProt P25105); assay: Human Platelet PAF Receptor Assay test (Test A); format: binding
T1 construct: endogenous in cells; host or cells: washed platelets from the blood of healthy human donors
T1 sequence (P25105 whole entry): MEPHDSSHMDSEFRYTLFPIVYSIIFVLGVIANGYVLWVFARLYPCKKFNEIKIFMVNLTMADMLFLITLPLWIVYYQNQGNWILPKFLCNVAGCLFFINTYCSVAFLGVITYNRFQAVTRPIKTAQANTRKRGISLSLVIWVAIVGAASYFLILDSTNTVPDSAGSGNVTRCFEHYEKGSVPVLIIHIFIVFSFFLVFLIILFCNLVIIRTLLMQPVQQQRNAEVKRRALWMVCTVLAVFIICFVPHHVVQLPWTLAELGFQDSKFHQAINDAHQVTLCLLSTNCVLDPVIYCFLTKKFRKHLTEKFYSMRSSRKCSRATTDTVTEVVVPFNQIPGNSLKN
Description: Human blood is obtained by venipuncture of healthy, human donors into an anti-coagulant mixture containing 3.15% of trisodium citrate and 20 μg/ml of Prostaglandin I2 (PGI2) in a ratio of blood to anti-coagulant of 9:1. Platelet rich plama (PRP) is prepared by centrifugation (250×g) of the blood for 20 minutes at room temperature. The PRP is then centrifuged (900×g) for 10 minutes at room temperature and the platelet pellet is washed two times with Tris-Tyrode's (TT) solution having a pH of 7.4 and containing 0.25% bovine serum albumin (BSA), and to which has been added PGI2 at a final concentration of […]. The platelets are resuspended at […] in TT/BSA containing 1.4 mM CaCl2.2H2 O and 0.7 mM MgCl2.6H2 O. All of the tests are conducted in duplicate and each of the test compounds is evaluated at concentrations of 100, 50, 1 and 0.1 μM. […]
Each mixture is allowed to incubate at room temperature for one hour, after which time the reaction is terminated by the addition of 500 μl of ice cold TT/BSA and centrifugation (900×g) at 4° C. for 10 minutes. […] An additional 2 ml. of Scintiverse II is then added to the vials and, after mixing, the vials are counted for 1 minute in a liquid scintillation spectrometer. The amount of specific binding is calculated as the difference in cpm between the total bound (^3 H)-PAF and non-specifically bound (^3 H)-PAF. […]

[3] = test system: PAF-mediated bronchoconstriction; assay: PAF-induced Pulmonary Inflation Pressure (PIP) Increase test (Test B); format: in vivo, guinea pigs; details: Cavia porcellus, po, read-out: Test B ED50
Description: Furthermore, in view of their usefulness as PAF receptor antagonists, the compounds of formula I have been found useful as inhibitors of PAF-mediated bronchoconstriction, which property was evaluated by the PAF-induced Pulmonary Inflation Pressure (PIP) Increase test (Test B) as follows:
Male guinea pigs, weighing between 300 and 400 gm, are anesthetized, after which time trachea tube, carotid and jugular catheters are inserted. The test animal is then force ventilated employing a small animal Harvard respirator and the resistance to lung inflation (PIP) is measured utilizing a pressure transducer and recorder. The test compound is administered orally at 30 minutes prior to, intravenously (jugular) at 5 minutes prior to, or intraarterially at 1 to 5 minutes prior to the introduction of PAF. […] Any blood pressure measurements taken are recorded from a transducer attached to the carotid catheter. […] A reading at 15 minutes after the administration of PAF is termed the endpoint PIP. The effect of the test compound on the PIP response is determined by the difference between the percent increase in maximal PIP over baseline for the test animal to which has been administered PAF and the test compound compared to the test animal to which only PAF has been administered to generate an ED 5 C (dose needed to effect a 50% response).

[4] = test system: PAF-mediated extravasation; assay: PAF-induced Extravasation test (Test C); format: in vivo, guinea pigs; details: Cavia porcellus, po, read-out: Test C ED50
[5] = test system: PAF-induced hypotension; details: rat; for decrease in blood pressure: within 10 sec.
Description: Male Wistar rats, weighing approximately 300 gm, are anesthetized and their carotid arteries cannulated to enable their diastolic and systolic arterial blood pressure measurements to be recorded. PAF is then administered intravenously at either 100 or 500 ng/kg, and the blood pressure drop (within 10 sec.) and recovery time required to reach the pre-injection blood pressure level are measured. […] In order to measure the effectiveness of a compound for both the inhibition of blood pressure decreases and shortening of the recovery time, the test compound is administered intravenously over a range of between 5 and 7 dosage levels (1 or 2 test animals per dose) and between 1 and 5 minutes prior to the introduction of PAF to generate an ED50.

Compound	IC50 [1] [µM]	IC50 [2] [µM]	ED50 [3] [mg/kg]	ED50 [4] [mg/kg]	decrease in blood pressure ([5]; 100 ng/kg i.v.) [%]	recovery time ([5]; 500 ng/kg i.v., to pre-injection blood pressure level) [min]	decrease in blood pressure ([5]; 500 ng/kg i.v.) [%]
COc1cc(CCc2ccc(C3=NCc4nnc(C)n4-c4sccc43)cc2)cc(OC)c1OC [Example 1, 1-methyl-6-[4-[2-(3,4,5-trimethoxyphenyl)ethyl]phenyl]-4H-thieno[2,3-e][1,2,4]triazolo[3,4-c][1,4]diazepine]	12	0.22	0.8	0.5	–	–	–
1-O-alkyl-2-acetyl-sn-glyceryl-3-phosphoryl-choline [PAF]	–	–	–	–	30	10	52
